Measurements taken from paper PMC7382147, “An effective UFLC–MS/MS method used to study pharmacokinetics of major constituents of Fukeqianjin formula in rat plasma” (Chinese Medicine, 2020).

How the values were obtained:
[1] = Pharmacokinetic study in rat plasma after oral administration of FKQJF extract (UFLC–MS/MS); type: in vivo, Sprague-Dawley (SD) rats; settings: for AUC(0-inf) / AUC(0-t) / Cmax / half-life / MRT last / MRT inf / Tmax: Sprague-Dawley, oral FKQJF extract, single dose 3.2 g/kg, mean ± SD; for MRT last: read-out: MRT0→t; for MRT inf: read-out: MRT0→∞; for Tmax: read-out: Tmax
Procedure: (§1) Aliquots of 100 μL plasma samples were mixed with 10 μL I.S. samples (1 μg/mL, in MeOH), then added with 500 μL ACN, respectively, and vortexed for 5 min, centrifugated at 10,000 rpm for 10 min, the supernatants were transferred into clean vials and dried in a vacuum centrifugal concentrator at 1200 rpm, 37 °C. After that, 100 μL ACN was added and ultrasonic (frequency 40 kHz, power 250 W) extracted for 5 min to dissolve the dry residue, vortexed for 1 min and centrifugated at 10,000 rpm for 5 min, 1 μL of each final supernatant was injected into UFLC–MS/MS for analysis.
An 8050 UFLC–MS/MS system equipped with LC-30A binary pump, a SIL-30AC autosampler, a SPD-M30A PDA detector, a CTO-20AC column oven, and a 8050 triple quadrupole mass spectrometer with an electrospray ionization source (ESI) was applied to detect and quantify FKQJF compounds in plasma samples. Data were acquired and processed with the software LabSolution (Ver. 5.6).
A Kinetex XB-C18 HPLC column (100 × 2.1 mm, 2.6 μm) linked with an equivalent guard column was used for chromatographic separation. The aqueous phase contained 0.2% formic acid was used as mobile phase A, and organic phase ACN as mobile phase B. The gradient elution method using in this program was: 3–5 min, 28–31% B; 5–7 min, 31–34% B; 7–9 min, 34–65% B; 9–10 min, 65–95% B; 10–11.5 min, 95% B. The flow rate of mobile phase, column temperature and autosampler temperature was 0.4 mL/min, 30 °C and 4 °C, respectively. The injection volume of each sample was set as 1 μL. The main MS spectrum parameters were set as follows: the flow rate of drying gas (N2) was 10.0 L/min; the atomized gas was 3.0 L/min and the heating gas flow rate was 10.0 L/min. The main temperatures of interface, desolvation and heat block was 300 °C, 250 °C and 400 °C, respectively. And, the interface and detector voltage were 3 kV and 1.8 kV.
Rats were divided into a blank group and a FKQJF administration group (6 rats for each), and fasted for 24 h. Each rat of the administration group was given FKQJF extract suspension at a single dose of 3.2 g FKQJF/kg body weight through oral administration in parallel. Blood samples (0.25 mL) were gathered from the orbital venous plexus of each rat, with FKQJF group gathered at 14 serial timepoints (6 rats for each) as 0.083 h, 0.16 h, 0.33 h, 0.5 h, 0.75 h, 1.0 h, 1.5 h, 2 h, 3 h, 4 h, 6 h, 8 h, 12 h and 24 h after drug administration. The blood samples were centrifugated at 6000g for 10 min to isolate plasma and stored at − 20 °C for further analysis.
Data were analyzed using the Drug and Statistics (DAS) Software version 2.0 (DAS 2.0, Mathematical Pharmacology Professional Committee of China, Shanghai, China). The non-compartmental mode was applied to obtain the following PK parameters: area under the plasma concentration–time curve from time zero to the time of last quantifiable concentration (AUC0→t) and area under the plasma concentration–time curve to time infinity (AUC0→∞), the elimination half-life (t1/2), mean retention time to last sampling time (MRT0→t) and mean retention time to infinity (MRT0→∞). The maximum plasma concentration (Cmax) and the time to maximum concentration (Tmax) were observed directly from the concentration–time (C–T) curves and measured data. All data are presented as mean ± SD.

[2] = Freeze–thaw stability of QC samples (−20 °C, three times); type: physicochemical, rat; settings: plasma QC, freeze (−20 °C) and thaw three times
Procedure: as §1
(§2) Six replicates of low, medium and high concentrations of quality control (QC) samples were used to verify the stabilities under different conditions including: place at room temperature for 8 h, freeze (− 20 °C) and thaw for three times, and store at − 20 °C for 20 days.

[3] = Ordinary stability of QC samples (room temperature for 8 h); type: physicochemical, rat; settings: plasma QC, room temperature 8 h
Procedure: as §1, §2

[4] = Long-term stability of QC samples (−20 °C for 20 days); type: physicochemical, rat; settings: plasma QC
Procedure: as §1, §2

[5] = oral FKQJF extract 3.2 g/kg, post dose

| Structure (SMILES) | AUC(0-inf) [1] | AUC(0-t) [1] | Cmax [1] | half-life [1] | MRT last [1] | MRT inf [1] | Tmax [1] | shape of the plasma concentration–time curve ([1]; oral FKQJF extract 3.2 g/kg) | Freeze–thaw stability Mean ([2]; spiked 50 ng/mL) | Freeze–thaw stability Mean ([2]; spiked 250 ng/mL) | Freeze–thaw stability Mean ([2]; spiked 500 ng/mL) | Ordinary stability Mean ([3]; spiked 50 ng/mL) | Ordinary stability Mean ([3]; spiked 250 ng/mL) | Ordinary stability Mean ([3]; spiked 500 ng/mL) | Long-term stability Mean ([4]; spiked 50 ng/mL) | Long-term stability Mean ([4]; spiked 250 ng/mL) | Long-term stability Mean ([4]; spiked 500 ng/mL) | further results |
| --- | --- | --- | --- | --- | --- | --- | --- | --- | --- | --- | --- | --- | --- | --- | --- | --- | --- | --- |
| COc1cc(O[C@@H]2O[C@H](CO)[C@@H](O)[C@H](O)[C@H]2O)cc(OC)c1OC [Analyte 1, 3,4,5-trimethoxyphenol-1-O-β-D-glucopyranoside] | 115 ± 15.8 ng·h/mL | 109 ± 11.4 ng·h/mL | 48 ± 4.41 ng/mL | 1.79 ± 0.44 h | 2.6 ± 0.12 h | 3.37 ± 0.26 h | 2 h | double-peaks | 112.34% | 99.57% | 106.56% | 80.92% | 104.48% | 117.94% | 86.86% | 89.00% | 103.76% | – |
| COC(=O)c1ccc(O)cn1 [Analyte 2, 5-hydroxypicolinic acid methyl ester] | 3110 ± 38.7 ng·h/mL | 2970 ± 169 ng·h/mL | 477 ± 33.3 ng/mL | 5.27 ± 2.94 h | 6.51 ± 0.66 h | 8.09 ± 1.32 h | 2.17 ± 0.76 h | – | 98.92% | 99.07% | 86.48% | 106.33% | 86.35% | 95.34% | 87.08% | 83.50% | 112.17% | – |
| O=Cc1ccc2n1C[C@]1(C[C@H](O)[C@@H](CO)O1)OC2 [Analyte 3, acortatarin A] | 489 ± 37.6 ng·h/mL | 463 ± 29.5 ng·h/mL | 102 ± 18.4 ng/mL | 2.66 ± 0.69 h | 3.67 ± 0.14 h | 4.32 ± 0.47 h | 2.33 ± 0.58 h | – | 84.84% | 92.61% | 90.89% | 93.52% | 84.19% | 109.98% | 81.68% | 86.77% | 93.19% | – |
| O=Cc1ccc2n1C[C@@]1(C[C@H](O)[C@@H](CO)O1)OC2 [Analyte 4, 9-epi-acortatarin A] | 92.6 ± 21.4 ng·h/mL | 80.5 ± 9.64 ng·h/mL | 46.8 ± 6.78 ng/mL | 2.2 ± 1.24 h | 2.38 ± 0.24 h | 3.25 ± 0.41 h | 1 ± 0.5 h | – | 91.90% | 107.25% | 102.81% | 108.94% | 116.00% | 84.20% | 118.34% | 81.20% | 104.85% | – |
| C=C1CC[C@@H]2[C@](C)(CO[C@@H]3O[C@H](CO)[C@@H](O)[C@H](O)[C@H]3O)CCC[C@@]2(C)[C@@H]1CCC1=CCOC1=O [Analyte 5, neoandrographolide] | 505 ± 109 ng·h/mL | 344 ± 43.1 ng·h/mL | 104 ± 14.9 ng/mL | 3.89 ± 0.85 h | 3.51 ± 0.24 h | 7.55 ± 1.93 h | 1 ± 0.43 h | double-peaks | – | – | – | – | – | – | – | – | – | time of first peak of the concentration–time curve [1, 5]: 0 to 1 h; time of second peak of the concentration–time curve [1, 5]: 1.5 to 3 h; Freeze–thaw stability Mean ([2]; spiked 60 ng/mL): 109.12%; Freeze–thaw stability Mean ([2]; spiked 300 ng/mL): 80.22%; Freeze–thaw stability Mean ([2]; spiked 600 ng/mL): 113.31%; Ordinary stability Mean ([3]; spiked 60 ng/mL): 81.32%; Ordinary stability Mean ([3]; spiked 300 ng/mL): 103.80%; Ordinary stability Mean ([3]; spiked 600 ng/mL): 94.88%; Long-term stability Mean ([4]; spiked 60 ng/mL): 113.28%; Long-term stability Mean ([4]; spiked 300 ng/mL): 97.44%; Long-term stability Mean ([4]; spiked 600 ng/mL): 82.61% |
| COc1cc(/C=C/C(=O)O)ccc1O [Analyte 6, trans-ferulic acid] | 1010 ± 558 ng·h/mL | 466 ± 51.9 ng·h/mL | 79.8 ± 9.43 ng/mL | 10.5 ± 6.63 h | 9.19 ± 1 h | 13.9 ± 9.49 h | 0.08 h | double-peaks | – | – | – | – | – | – | – | – | – | Freeze–thaw stability Mean ([2]; spiked 60 ng/mL): 115.63%; Freeze–thaw stability Mean ([2]; spiked 300 ng/mL): 102.20%; Freeze–thaw stability Mean ([2]; spiked 600 ng/mL): 88.33%; Ordinary stability Mean ([3]; spiked 60 ng/mL): 88.22%; Ordinary stability Mean ([3]; spiked 300 ng/mL): 109.93%; Ordinary stability Mean ([3]; spiked 600 ng/mL): 91.44%; Long-term stability Mean ([4]; spiked 60 ng/mL): 83.07%; Long-term stability Mean ([4]; spiked 300 ng/mL): 91.27%; Long-term stability Mean ([4]; spiked 600 ng/mL): 102.00% |
| O=c1c(-c2ccc(O)cc2)coc2cc(O[C@@H]3O[C@H](CO)[C@@H](O)[C@H](O)[C@H]3O)cc(O)c12 [Analyte 7, genistin] | 550 ± 70.7 ng·h/mL | 468 ± 48.4 ng·h/mL | 87.7 ± 26.6 ng/mL | 7.68 ± 3.01 h | 9.04 ± 0.68 h | 14.2 ± 3.28 h | 0.17 h | double-peaks | 84.84% | 92.61% | – | 93.52% | 84.19% | – | 118.09% | 104.72% | 97.81% | – |
| O=C(O)c1ccccc1O [Analyte 8, salicylic acid] | 2140 ± 168 ng·h/mL | 1800 ± 155 ng·h/mL | 433 ± 53.1 ng/mL | 2.7 ± 0.54 h | 2.88 ± 0.15 h | 4.31 ± 0.67 h | 1.67 ± 0.29 h | double-peaks | 80.11% | 102.50% | 88.21% | 95.42% | 108.42% | 103.60% | 109.80% | 114.13% | 87.97% | – |
| COc1cc2c(cc1O)CC[n+]1cc3c(OC)c(OC)ccc3cc1-2 [Analyte 9, jatrorrhizine] | 2550 ± 277 ng·h/mL | 1090 ± 110 ng·h/mL | 270 ± 24 ng/mL | 9.65 ± 4.91 h | 8.96 ± 0.4 h | 10.5 ± 4.72 h | 1.83 ± 0.29 h | – | – | – | – | – | – | – | – | – | – | Freeze–thaw stability Mean ([2]; spiked 25 ng/mL): 86.77%; Freeze–thaw stability Mean ([2]; spiked 150 ng/mL): 113.07%; Ordinary stability Mean ([3]; spiked 25 ng/mL): 104.79%; Ordinary stability Mean ([3]; spiked 75 ng/mL): 93.01%; Ordinary stability Mean ([3]; spiked 150 ng/mL): 92.51%; Long-term stability Mean ([4]; spiked 25 ng/mL): 80.63%; Long-term stability Mean ([4]; spiked 75 ng/mL): 91.97%; Long-term stability Mean ([4]; spiked 150 ng/mL): 98.06% |
